In patent publication US12532889B2, “Herbicidal compositions comprising glufosinate” (BASF SE, priority 2023, dated 2026):
Values joined by “and” are separate entries in the source; they are usually repeats but may differ in a detail not shown here. Equal values may be shown once.

Legend:
Assay in all cases: Post-emergence application in field trials (Example A)
Format in all cases: in vivo
[1] = tested on: COMDI (Commelina diffusa); conditions: Table 5.3; COMDI growth stage 76-77; A-1 25, B-6 252 g ai/ha; 28 DAT; water 300 l/ha
Protocol: (§1) In the examples below, using the method of S. R. Colby (1967) “Calculating synergistic and antagonistic responses of herbicide combinations”, Weeds 15, p. 22ff., the value E, which is expected if the activity of the individual active compounds is only additive, was calculated:
(§2) [formula] • where • X=percent activity using active herbicide A at an application rate a; • Y=percent activity using active herbicide B (e.g. glufosinate) at an application rate b; • E=expected activity (in %) by A+B at application rates a+b.
(§3) If the value found experimentally is higher than the value E calculated according to Colby, a synergistic effect is present.
(§4) On field test sites, natural weed infestation or seeded weeds were treated post-emergence of the weeds.
(§5) In the field trials, the weeds were treated as indicated below.
(§6) In the following experiments, the herbicidal activity for the individual herbicidal compositions (solo and mixture applications) was assessed at the indicated days after treatment (DAT). The assessments for the damage on undesired weeds caused by the composition was carried out using a scale from 0 to 100%, compared to the untreated control plants. Here, 0 means no damage and 100 means complete destruction of the plants.

CYNDA (Cynodon dactylon) = conditions: A-1 25, B-6 252 g ai/ha, 28 DAT, water 400 l/ha
Protocol: as §1, §2, §3, §4, §5, §6

[2] = tested on: CYPKH (Cyperus kyllingia var. humilis); conditions: Table 5.4; CYPKH growth stage 76-77, height 13-14 cm; A-1 25, B-6 252 g ai/ha; 28 DAT; water 400 l/ha
Protocol: as §1, §2, §3, §4, §5, §6

[3] = tested on: DIGSA (Digitaria sanguinalis); conditions: for % Herbicidal activity: growth stage 22
Protocol: as §1, §2, §3, §4, §5, §6

[4] = tested on: ECHCG (Echinocloa crus-galli)
Protocol: as §1, §2, §3, §4, §5, §6

[5] = tested on: HORVW (Hordeum vulgare (winter barley))
Protocol: as §1, §2, §3, §4, §5, §6

[6] = tested on: LOLMU (Lolium multiflorum); conditions: for % Herbicidal activity: B-6 252 g ai/ha, growth stage 22-25, height 20-25 cm; for % herbicidal activity: Table 6.1, LOLMU growth stage 22-25, height 20-25 cm, 200 l/ha water
Protocol: as §1, §2, §3, §4, §5, §6

[7] = tested on: PASSC (Paspalum scrobiculatum); conditions: Table 5.2, A-1 25, B-6 252 g ai/ha, 21 DAT, water 450 l/ha
Protocol: as §1, §2, §3, §4, §5, §6

[8] = tested on: SETVE (Setaria verticillata); conditions: 42 DAT; B-6 252 g ai/ha; growth stage 21-23; height 8-16 cm
Protocol: as §1, §2, §3, §4, §5, §6

ZEAMX (Zea mays) = tested on: ZEAMX (Zea mays)
Protocol: as §1, §2, §3, §4, §5, §6

[9] = 21 DAT, B-6 150 g ai/ha, growth stage 23-30, height 15-20 cm
[10] = 21 DAT, B-6 252 g ai/ha, growth stage 23-30, height 15-20 cm
[11] = 21 DAT, B-6 252 g ai/ha, growth stage 23-29, height 20-25 cm
[12] = 42 DAT, B-6 252 g ai/ha, growth stage 15-16, height 27-33 cm

With `CP(=O)(O)CC[C@H](N)C(=O)O.N` [B-6, glufosinate-P-ammonium] the “% herbicidal activity” value [1] was 39%, the “% herbicidal activity” value (CYNDA (Cynodon dactylon); Table 5.4, CYNDA growth stage 76-77, height 15-16 cm) was 88% and the “% herbicidal activity” value (CYNDA (Cynodon dactylon); Table 5.5, CYNDA growth stage 72) was 86%. For the same compound, the “% herbicidal activity” value [2] was 48%, the “% Herbicidal activity” value ([3]; 7 DAT, B-6 252 g ai/ha, height 10-15 cm) was 75% and the “% herbicidal activity” value ([3]; 21 DAT, B-6 252 g ai/ha, growth stage 21-22, height 10-15 cm) was 20%. For the same compound, the “% Herbicidal activity” value ([3]; 21 DAT, B-6 252 g ai/ha, height 10-15 cm) was 80%, the “% Herbicidal activity” value ([3]; 42 DAT, B-6 252 g ai/ha, height 10-15 cm) was 50% and the “% herbicidal activity” value ([3]; Table 6.1, DIGSA growth stage 21-22, height 10-15 cm, A-1 18, B-6 252 g ai/ha, 7 DAT, 200 l/ha water) was 30%. For the same compound, the “% Herbicidal activity” value ([4]; 7 DAT, B-6 252 g ai/ha, growth stage 23-30, height 15-20 cm) was 60%, the “% Herbicidal activity” value [4, 9] was 40% and the “% herbicidal activity” value [4, 9] was 40%. The “% Herbicidal activity” value [4, 10] was 70%, the “% herbicidal activity” value [4, 10] was 70% and the “% Herbicidal activity” value ([4]; 28 DAT, B-6 252 g ai/ha, growth stage 23-30, height 15-20 cm) was 70% and 60%. For the same compound, the “% herbicidal activity” value ([4]; Table 6.1, ECHCG growth stage 23-30, height 15-20 cm, A-1 12.5, B-6 150 g ai/ha, 7 DAT, 200 l/ha water) was 50%, the “% herbicidal activity” value ([4]; Table 6.1, ECHCG growth stage 23-30, height 15-20 cm, A-1 12.5, B-6 252 g ai/ha, 7 DAT, 200 l/ha water) was 60% and the “% herbicidal activity” value ([4]; Table 6.1, ECHCG growth stage 23-30, height 15-20 cm, A-1 18, B-6 150 g ai/ha, 7 DAT, 200 l/ha water) was 50%. The “% herbicidal activity” value ([4]; Table 6.1, ECHCG growth stage 23-30, height 15-20 cm, A-1 18, B-6 252 g ai/ha, 7 DAT, 200 l/ha water) was 60%, the “% Herbicidal activity” value ([5]; 7 DAT, B-6 150 g ai/ha, growth stage 23-29, height 20-25 cm) was 0% and the “% Herbicidal activity” value ([5]; 7 DAT, B-6 252 g ai/ha, growth stage 23-29, height 20-25 cm) was 50% and 30%. The “% Herbicidal activity” value ([5]; 21 DAT, B-6 150 g ai/ha, growth stage 23-29, height 20-25 cm) was 0%, the “% Herbicidal activity” value [5, 11] was 70% and the “% herbicidal activity” value [5, 11] was 30% and 40%. For the same compound, the “% herbicidal activity” value ([5]; Table 6.1, HORVW growth stage 23-29, height 20-25 cm, A-1 12.5, B-6 150 g ai/ha, 7 DAT, 200 l/ha water) was 0%, the “% herbicidal activity” value ([5]; Table 6.1, HORVW growth stage 23-29, height 20-25 cm, A-1 12.5, B-6 252 g ai/ha, 7 DAT, 200 l/ha water) was 50% and the “% herbicidal activity” value ([5]; Table 6.1, HORVW growth stage 23-29, height 20-25 cm, A-1 18, B-6 150 g ai/ha, 7 DAT, 200 l/ha water) was 0%. For the same compound, the “% herbicidal activity” value ([5]; Table 6.1, HORVW growth stage 23-29, height 20-25 cm, A-1 18, B-6 252 g ai/ha, 7 DAT, 200 l/ha water) was 40%, the “% Herbicidal activity” value ([6]; 7 DAT) was 60% and the “% Herbicidal activity” value ([6]; 28 DAT) was 40%. For the same compound, the “% herbicidal activity” value ([6]; A-1 12.5, B-6 252 g ai/ha, 7 DAT) was 60%, the “% herbicidal activity” value ([6]; A-1 18, B-6 252 g ai/ha, 7 DAT) was 60% and the “% herbicidal activity” value [7] was 27%. For the same compound, the “% Herbicidal activity” value [8] was 60%, the “% herbicidal activity” value [8] was 35% and the “% Herbicidal activity” value (ZEAMX (Zea mays); 21 DAT, B-6 252 g ai/ha, growth stage 15-16, height 27-33 cm) was 65%. The “% herbicidal activity” value (ZEAMX (Zea mays); 21 DAT, B-6 252 g ai/ha, growth stage 15-16, height 50-60 cm) was 30%, the “% Herbicidal activity” value (ZEAMX (Zea mays); 28 DAT, B-6 252 g ai/ha, growth stage 15-16, height 50-60 cm) was 75% and the “% Herbicidal activity” value (ZEAMX (Zea mays); [12]) was 45% and 50%. For the same compound, the “% herbicidal activity” value (ZEAMX (Zea mays); [12]) was 45% and the “% herbicidal activity” value (ZEAMX (Zea mays); Table 6.1, ZEAMX growth stage 15-16, height 50-60 cm, A-1 18, B-6 252 g ai/ha, 7 DAT, 200 l/ha water) was 65%.
